One assay has as its target CRBN (Homo sapiens, UniProt Q96SW2). As to the kind of experiment: Competition Assay (MAPPIT-like, competition with trimethoprim-lenalidomide hybrid ligand for binding to CRBN in cells).
Assay [1] concerns IKZF1, ASS1 and SALL4 recruitment to CRBN. As to the kind of experiment: Recruitment assessment: recruitment of any tested substrate from among IKZF1, ASS1 and SALL4. Format: cell-based. To be noted: any tested substrate at any tested compound concentration.
In assay [2] the target is T1, SALL4 recruitment to CRBN (Homo sapiens, UniProt Q96SW2).
T1 construct: Full size proteins were fused for each of the target proteins tested, except in the case of IKZF1 where isoform 7 was used; expressed in transfected cells; host or cells: HEK293T
As to the kind of experiment: Recruitment Assay (MAPPIT-like): SALL4 recruitment to CRBN. Format: cell-based. To be noted: HEK293T cells; pSEL-SALL4+pMG1-CRBN; luciferase 24 hours after treatment; read-out: EC50_SALL4. How it is done:
(§1) In this experimental set-up, cells were transfected with a construct encoding a CRBN-fusion protein and another one encoding a substrate-fusion protein. Test compound activity was assessed with increasing concentrations of test compounds (dose-response studies) to monitor the ability to promote CRBN-ligand-induced protein interaction.
(§2) Full size proteins were fused for each of the target proteins tested, except in the case of IKZF1 where isoform 7 was used. For the study, the following were used: IKZF1 recruitment: pSEL-CRBN+pMG1-IKZF1(isoform 7); ASS1 recruitment: pSEL-CRBN+pMG1-ASS1. SALL4 recruitment: pSEL-SALL4+pMG1-CRBN. […] Luciferase activity was measured 24 hours after test compound treatment using the Luciferase Assay System kit (PROMEGA, Madison, Wis.) with an Ensight plate reader (PERKIN ELMER LIFE SCIENCES, Waltham, Mass.). Data points depicted fold induction of the average luciferase activity of triplicate samples from EPO+test compound treated cells versus EPO only treated cells. Error bars represent standard deviations. Curves were fit using 4-parameter nonlinear regression in […] PRISM software.

The next assay has as its target T2, ASS1 recruitment to CRBN (Homo sapiens, UniProt Q96SW2).
T2 construct: Full size proteins were fused for each of the target proteins tested, except in the case of IKZF1 where isoform 7 was used; expressed in transfected cells; host or cells: HEK293T
In words: Recruitment Assay (MAPPIT-like): ASS1 recruitment to CRBN. Particulars: HEK293T cells; pSEL-CRBN+pMG1-ASS1; luciferase 24 hours after treatment; read-out: EC50_ASS1. Format: cell-based. How it is done: as §1, §2

Assay [3] addresses T3, IKZF1 (isoform 7) recruitment to CRBN (Homo sapiens, UniProt Q96SW2).
T3 construct: Full size proteins were fused for each of the target proteins tested, except in the case of IKZF1 where isoform 7 was used; expressed in transfected cells; host or cells: HEK293T
As to the kind of experiment: Recruitment Assay (MAPPIT-like): IKZF1 recruitment to CRBN. Format: cell-based. Particulars: HEK293T cells; pSEL-CRBN+pMG1-IKZF1(isoform 7); luciferase 24 hours after treatment; read-out: EC50_IKZF1. How it is done:
as §1, §2

Where [4] appears, read: read-out: IC50 Competition, HEK293T cells, competition with 300 nM trimethoprim-lenalidomide hybrid ligand, luciferase 24 hours after compound treatment.

Where two headings read alike, the source gives them in different places.

For the compound `Cc1ccc2c(c1)C(=O)N(c1c(C(C)C)cccc1C(C)C)C2=O` [5HPP-33, 2-(2,6-diisopropylphenyl)-5-methyl-isoindoline-1,3-dione, reference compound], at CRBN (setting [4]), the IC50 is 5110 nM. Also, in assay [1], the “Recruitment Assessment” value was “FALSE”.

Take `Cc1cccc2nnn(C3CCC(=O)NC3=O)c(=O)c12` (centres unmarked) [C13247, 3-(5-methyl-4-oxo-1,2,3-benzotriazin-3-yl)piperidine-2,6-dione]: the EC50 in assay [2] is 402 nM; on ASS1 recruitment to CRBN, 8550 nM; in assay [3] it was 2880 nM. For the same compound, in assay [1], the “Recruitment Assessment” value is “TRUE”.

On to `O=C1CCC(n2nnc3ccccc3c2=O)C(=O)N1` (centres unmarked) [C21223, 3-(4-oxo-1,2,3-benzotriazin-3-yl)piperidine-2,6-dione], for which the EC50 in assay [2] was 517 nM. In addition, the 50% inhibitory concentration (IC50) at CRBN turned out to be 2240 nM. In assay [1], the “Recruitment Assessment” value is “TRUE”.

On to `O=C1CCC(N2Cc3c(Cl)cccc3C2=O)C(=O)N1` (centres unmarked) [C24031, 3-(4-chloro-1-oxo-isoindolin-2-yl)piperidine-2,6-dione], for which the EC50 in assay [2] was less than 13.7 nM; on ASS1 recruitment to CRBN, 259 nM; in assay [3] it was 58.7 nM. Also, in assay [1], the “Recruitment Assessment” value is recorded as “TRUE”.

Regarding `O=C1CCC(N2C(=O)C3CCCCC3C2=O)C(=O)N1` (centres unmarked) [C24191, 2-(2,6-dioxo-3-piperidyl)-3a,4,5,6,7,7a-hexahydroisoindole-1,3-dione], the IC50 on CRBN (setting [4]) was determined as 17700 nM. Also, the “Recruitment Assessment” value in assay [1] is recorded as “FALSE”.

On to `Cc1cccc2c1CN(C1CCC(=O)NC1=O)C2=O` (centres unmarked) [C28558, 3-(4-methyl-1-oxo-isoindolin-2-yl)piperidine-2,6-dione], for which the EC50 is less than 13.7 nM in assay [2], 368 nM on ASS1 recruitment to CRBN and 77.4 nM in assay [3]. In addition, the “Recruitment Assessment” value in assay [1] is given as “TRUE”.

For `Cc1ccc2c(c1)CN(C1CCC(=O)NC1=O)C2=O` (centres unmarked) [C28577, 3-(5-methyl-1-oxo-isoindolin-2-yl)piperidine-2,6-dione], the EC50 in assay [2] was less than 13.7 nM; at ASS1 recruitment to CRBN, 653 nM; in assay [3], 1610 nM. Further, the “Recruitment Assessment” value in assay [1] is “TRUE”.

`O=C1CCC(N2Cc3c(NC(=O)Nc4cccc5c4CN(C4CCC(=O)NC4=O)C5=O)cccc3C2=O)C(=O)N1` (centres unmarked) [C30231, 1,3-bis[2-(2,6-dioxo-3-piperidyl)-1-oxo-isoindolin-4-yl]urea]: the values for the EC50 in assay [2] and in assay [3] were 1700 nM and 2730 nM, respectively. Also, the “Recruitment Assessment” value in assay [1] is given as “TRUE”.

Turning to `O=C1CCC(N2Cc3cc(NCCNC(=O)Nc4ccccc4)ccc3C2=O)C(=O)N1` (centres unmarked) [C35751, 1-[2-[[2-(2,6-dioxo-3-piperidyl)-1-oxo-isoindolin-5-yl]amino]ethyl]-3-phenyl-urea], the EC50 was 232 nM in assay [2] and 1450 nM at ASS1 recruitment to CRBN. Moreover, in assay [1], the “Recruitment Assessment” value is given as “TRUE”.

For `O=C1CCC(N2Cc3cc(NCC(=O)Nc4ccccc4)ccc3C2=O)C(=O)N1` (centres unmarked) [C35797, 2-[[2-(2,6-dioxo-3-piperidyl)-1-oxo-isoindolin-5-yl]amino]-N-phenyl-acetamide], the EC50 turned out to be 1080 nM in assay [2] and 1330 nM in assay [3]. Also, the “Recruitment Assessment” value in assay [1] was “TRUE”.

`Cc1cccc2c(=O)n(C3CCC(=O)NC3=O)nnc12` (centres unmarked) [C35830, 3-(8-methyl-4-oxo-1,2,3-benzotriazin-3-yl)piperidine-2,6-dione]: the EC50 in assay [2] came to 588 nM; on ASS1 recruitment to CRBN, 5560 nM. In addition, in assay [1], the “Recruitment Assessment” value is recorded as “TRUE”.

`O=C(CNc1ccc2c(c1)CN(C1CCC(=O)NC1=O)C2=O)NCc1ccccc1` (centres unmarked) [C35856]: the figures for the EC50 in assay [2] and in assay [3] were 188 nM and 1150 nM, respectively. For the same compound, the “Recruitment Assessment” value in assay [1] is reported as “TRUE”.

`N#CC1c2ccccc2C(=O)N1C1CCC(=O)NC1=O` (centres unmarked) [C39453, 2-(2,6-dioxo-3-piperidyl)-3-oxo-isoindoline-1-carbonitrile]: the EC50 worked out at 875 nM in assay [2] and 17100 nM in assay [3]. Moreover, the “Recruitment Assessment” value in assay [1] is given as “TRUE”.

With `N#Cc1ccc2c(c1)C(=O)N(C1CCC(=O)NC1=O)C2` (centres unmarked) [C48007, 2-(2,6-dioxo-3-piperidyl)-3-oxo-isoindoline-5-carbonitrile], the EC50 in assay [2] turned out to be 430 nM; in assay [3], 1620 nM. In assay [1], the “Recruitment Assessment” value is listed as “TRUE”.

With `O=C1CCC(N2Cc3c(cccc3-c3ccccc3)C2=O)C(=O)N1` (centres unmarked) [C48014, 3-(1-oxo-4-phenyl-isoindolin-2-yl)piperidine-2,6-dione], the values for the EC50 (in assay [2]; on ASS1 recruitment to CRBN; in assay [3]) were 62.1 nM, 921 nM and 1240 nM, respectively. The “Recruitment Assessment” value in assay [1] is “TRUE”.

For `CC1c2ccccc2C(=O)N1C1CCC(=O)NC1=O` (centres unmarked) [C51383, 3-(1-methyl-3-oxo-isoindolin-2-yl)piperidine-2,6-dione], the EC50 in assay [2] turned out to be 59.3 nM; on ASS1 recruitment to CRBN it was 1700 nM; in assay [3] it was 1520 nM. Further, in assay [1], the “Recruitment Assessment” value was “TRUE”.

As to `Nc1cccc2nnn(C3CCC(=O)NC3=O)c(=O)c12` (centres unmarked) [C59904, 3-(5-amino-4-oxo-1,2,3-benzotriazin-3-yl)piperidine-2,6-dione], the EC50 in assay [2] stood at 330 nM; at ASS1 recruitment to CRBN it was 687 nM; in assay [3], 122 nM. Further, the “Recruitment Assessment” value in assay [1] is “TRUE”.

With `O=C1CCC(N2Cc3c(ccc4c3OCO4)C2=O)C(=O)N1` (centres unmarked) [C67858, 3-(6-oxo-8H-[1,3]dioxolo[4,5-e]isoindol-7-yl)piperidine-2,6-dione], the EC50 in assay [2] was determined as 29.3 nM; at ASS1 recruitment to CRBN, 884 nM; in assay [3], 569 nM. The “Recruitment Assessment” value in assay [1] was “TRUE”.

As to `O=C1CC/C(=C/c2ccccc2)C(=O)N1` [C68121, (3Z)-3-benzylidenepiperidine-2,6-dione], the IC50 at CRBN (setting [4]) is 6500 nM. Further, in assay [1], the “Recruitment Assessment” value was “FALSE”.

On to `O=C1CCC(N2Cc3cc(Nc4ncccn4)ccc3C2=O)C(=O)N1` (centres unmarked) [C80369, 3-[1-oxo-5-(pyrimidin-2-ylamino)isoindolin-2-yl]piperidine-2,6-dione], for which the “Recruitment Assessment” value in assay [1] is listed as “TRUE”. Further, the EC50 on ASS1 recruitment to CRBN was found to be 1290 nM.

With `N#Cc1ccc(Nc2ccc3c(c2)CN(C2CCC(=O)NC2=O)C3=O)nn1` (centres unmarked) [C80378, 6-[[2-(2,6-dioxo-3-piperidyl)-1-oxo-isoindolin-5-yl]amino] pyridazine-3-carbonitrile], the figures for the EC50 (in assay [2]; on ASS1 recruitment to CRBN) were 387 nM and 9420 nM, respectively. Besides, the “Recruitment Assessment” value in assay [1] is on record as “TRUE”.

In the case of `O=C1CCC(N2Cc3cc(Nc4ncc5c(n4)COC5)ccc3C2=O)C(=O)N1` (centres unmarked) [C80380, 3-[5-(5,7-dihydrofuro[3,4-d]pyrimidin-2-ylamino)-1-oxo-isoindolin-2-yl]piperidine-2,6-dione], the results for the EC50 in assay [2] and in assay [3] were 9.89 nM and 1780 nM, respectively. In addition, the “Recruitment Assessment” value in assay [1] was “TRUE”.

Take `O=C1CCC(N2Cc3ccc(NCC(=O)Nc4ccccc4)cc3C2=O)C(=O)N1` (centres unmarked) [C84965, 2-[[2-(2,6-dioxo-3-piperidyl)-3-oxo-isoindolin-5-yl]amino]-N-phenyl-acetamide]: the IC50 on CRBN (setting [4]) was 199 nM. Moreover, the “Recruitment Assessment” value in assay [1] was “TRUE”.

For the compound `O=C1CCC(Nc2ncc3ccccc3n2)C(=O)N1` (centres unmarked) [C97402, 3-(quinazolin-2-ylamino)piperidine-2,6-dione], at CRBN (setting [4]), the half-maximal inhibitory concentration (IC50) is 6320 nM. In addition, the “Recruitment Assessment” value in assay [1] was “FALSE”.

`CN(C)c1ccc2c(c1)CN(C1CCC(=O)NC1=O)C2=O` (centres unmarked) [C98103, 3-[5-(dimethylamino)-1-oxo-isoindolin-2-yl]piperidine-2,6-dione]: the EC50 in assay [2] was less than 13.7 nM; in assay [3], 1290 nM. For the same compound, in assay [1], the “Recruitment Assessment” value is “TRUE”.

With `Cc1ccc(NC(=O)NCc2ccc3c(c2)CN(C2CCC(=O)NC2=O)C3=O)cc1Cl` (centres unmarked) [CC-885, 1-(3-chloro-4-methyl-phenyl)-3-[[2-(2,6-dioxo-3-piperidyl)-1-oxo-isoindolin-5-yl]methyl]urea, reference compound], the “Recruitment Assessment” value in assay [1] is reported as “TRUE”. The EC50 is 80.1 nM at ASS1 recruitment to CRBN and less than 13.7 nM in assay [3].

Turning to `O=C(O)CN1CCN(Cc2ccc(COc3cccc4c3CN(C3CCC(=O)NC3=O)C4=O)cc2)CC1.O=CO` (centres unmarked) [ZE26-0001, 2-[4-[[4-[[2-(2,6-dioxo-3-piperidyl)-1-oxo-isoindolin-4-yl]oxymethyl]phenyl]methyl]piperazin-1-yl]acetic acid; formic acid], the EC50 turned out to be 801 nM in assay [2] and 4680 nM in assay [3]. Further, the “Recruitment Assessment” value in assay [1] is given as “TRUE”.

One may read the IC50 as the midpoint of a concentration-inhibition curve.
